Experimental data from paper PMC12356476, “Transferrin conjugated pH/NIR-responsive black phosphorus nanoplatform: A novel multimodal approach for breast cancer theranostics” (International Journal of Pharmaceutics: X, 2025).
≈ marks a conversion by molar mass, not a printed value.

What was measured:
[1] = test system: chorioallantoic membrane (CAM) of fertilized chicken eggs; assay: Chorioallantoic membrane (CAM) assay; type: in vivo; details: 200 μL applied on day 8, observed at 8 and 24 h; DOX equivalent 200 μg
Protocol: The CAM assay is a method used to assess the effects of chemical agents/formulations on the developing, highly vascularized CAM. Fertilized chicken eggs were obtained, disinfected with 70 % ethanol, and incubated in a humidified environment. The eggs were kept horizontal and regularly rotated. […] Lenalidomide was considered as positive and normal saline (NS) as negative control. Following application, the egg's cavity was resealed with scotch tape and returned to the incubator. Changes in the blood vessel morphology were examined at 8 and 24 h after incubation ([Raychaudhuri et al., 2021]).

4 T1 cells [2] = assay: Cellular uptake by flow cytometry; type: cell-based, murine; details: ~5 μg/mL, no irradiation
Protocol: To understand the cellular uptake of nanoformulations, flow cytometry was employed. 4 T1 cells were seeded into 6-well plates and allowed to adhere for 24 h prior to treatment. […] Followed by the removal of culture medium after 2 h of treatment, test samples were added, and the laser groups were exposed to NIR-II 808 nm laser for 5 min and kept in incubator for 2 h. The plates were taken and added with trypsin for the detachment of 4 T1 cells. It was then collected, centrifuged to separate free DOX and BP-based nanoformulation, and analyzed using a flow cytometer (BD Accuri). Untreated 4 T1 cells were used as a control group.

[3] = test system: 4T1 tumour bearing BALB/c mice; assay: Blood (haematological) parameters estimation; type: in vivo
Protocol: A total of about 100 μL of blood was collected from the retroorbital route and collected into a tube with 10 μL of EDTA for a complete blood count such as RBC, WBC, platelets and hemoglobin analysis using Nihon Kohden blood analyzer (celltac alpha-MEK-6550, India).

[4] = test system: 4 T1-breast tumour bearing BALB/c mice; assay: Pharmacodynamic study (antitumour efficacy); type: in vivo; details: i.v., 5 mg/kg eq. to DOX, 14 days
Protocol: Female BALB/c mice were given a subcutaneous injection of 4 T1 cells (1.5 × 10^6 cells) in 100 μL of cold PBS, into the dorsal flank. The breast tumour appeared in 10–14 days while the mice were under close observation. Using a vernier caliper, the length and width were measured, and the tumour volume was measured. When the tumour volume reached about 75 to 100 mm^3, the mice were grouped randomly to 10 groups (n = 3):
Group I: Saline (i v injection).
Group II: Saline + NIR (i v injection).
Group III: BPNSs (Dose: 5 mg/Kg) (i v injection).
Group IV: BPNSs + NIR (Dose: 5 mg/Kg) (i v injection).
After 2 h of injection, the laser irradiation groups were exposed to 808 nm NIR laser (1 W/cm^2) for 5 min. The starting day of the treatment was considered as 0th day and checked for body weight in every day and tumour volume in every 2 days. The following equation was used for the measurement of tumour volume (V): Volumemm^3=Width^2XLength/2
(§1) On the last day of the treatment (Day 14), the BALB/c mice were euthanized by cervical dislocation and major organs were collected, washed and fixed with 4 % paraformaldehyde for Hematoxylin and Eosin (H&E) staining.

[5] = In vivo pharmacokinetics after i.v. injection; details: 5 mg/kg DOX equivalent, BALB/c mice, plasma, Mean ± SD, n = 3
Protocol: Female BALB/c mice (6–8 weeks old, 18–25 g) were obtained from a certified animal supplier and used for the study. Prior to the start of the experiment, all animals were housed under standard laboratory conditions (12-h light/dark cycle, temperature 22 ± 2 °C, relative humidity 50–60 %) with ad libitum access to food and water. A two-week acclimatization period was provided to allow the animals to adjust to the laboratory environment. […] Mice were randomly assigned to experimental groups (n = 3 per group), and all efforts were made to minimize suffering. The allocation and data collection were conducted in a blinded manner wherever applicable. No animals were excluded from the analysis unless stated otherwise.
Blood sample was collected in EDTA solution containing tubes at intervals ranging from 5 min to 48 h post-administration and then centrifuged to separate the plasma ([Zeng et al., 2019]).

[6] = test system: 4 T1-breast tumour bearing BALB/c mice; assay: Histopathological analysis (H&E) of tumour tissues and other organs; type: in vivo; set-up: key to Tumour cells / Necrosed area / Malignant features like nuclear pleomorphism, hyperchromatism / inflammation / Muscle invasion: -: Nil; + few; ++ Many; +++ Abundant; details: for Malignant features like nuclear pleomorphism, hyperchromatism / Mitotic count/10HPF / Muscle invasion / Necrosed area / Tumour cells / inflammation: tumour tissue, 14 days
Protocol: as §1
Three BALB/c mice from each group were sacrificed after 14 days of treatment. The tissues (liver, spleen, lung, heart, kidney, and breast tumour) were isolated and fixed with 10 % formalin for 24 to 48 h. The tissue slides were examined using the LX-500 LED trinocular Research microscope, and pictures were captured using the MiaCam CMOS AR 6pro microscope camera coupled to image AR pro software. The slides were graded according to tumour cells, necrosed areas, malignant features like nuclear pleomorphism and hyperchromatism, inflammation, muscle invasion and mitotic count counted in 10 consecutive high-power fields (HPFs).

[7] = test system: 4 T1-breast tumour bearing BALB/c mice; assay: Biodistribution study by in vivo fluorescence imaging; details: i.v., imaging 0.5 to 36 h post-injection
Excerpt: In vivo biodistribution study of plain DOX, and BP-DOX@PDA-TF were monitored with an in vivo imaging system. […] Using IVIS® containing 620 nm and 780 nm filters respectively for excitation and emission, tumour accumulation trends were examined across various time periods following injection.

4 T1 cells [8] = assay: In vitro PTT study (MTT with 808 nm NIR irradiation); type: cell-based, murine; details: 4 T1 tumour cellular toxicity after 48 h; 808 nm laser 1.0 W/cm^2 for 10 min
Protocol: Based on the results of cytotoxicity in 4 T1 cells produced by the test compounds, five concentrations were selected (100, 10, 1, 0.1, 0.001) to evaluate the extent of cytotoxicity in the presence of NIR radiation of 808 nm. 4 T1 cell line was seeded and incubated for 24 h. After refreshing the medium, the wells were added with samples at 37 °C for 4 h, and irradiated with 808 nm laser (1.0 W/cm^2) for 10 mins incubated till 48 h ([Phan et al., 2017]; [Xu et al., 2021]).
Absorbance data were observed, and percentage tumour cell growth inhibition was measured using the following formula: Percentage growth inhibition=Absorbance of Blank−Absorbance of test/Absorbance of BlankX100

4 T1 cells [9] = assay: MTT cytotoxicity assay without irradiation; type: cell-based, murine; details: 4 T1 tumour cellular toxicity after 48 h
Protocol: The 4 T1 cell line, a murine breast tumour cell line derived from BALB/cf3H mice, was obtained from Elabsciences, Inc. The cytotoxicity of BP-based nanoformulation were evaluated using MTT assay. […] After 48 h, media was discarded and added with 50 μL of MTT reagent (2 mg/ml). The samples were then kept for 4 h of incubation and added with 50 μL DMSO to solubilize the formazan crystals. OD (optical density) was evaluated at 540 nm in a microplate reader (ELx800). Absorbance data were observed, and percentage tumour cell growth inhibition was measured using the following formula: Percentage growth inhibition=Absorbance of Blank−Absorbance of test/Absorbance of BlankX100

[10] = after 14 days of treatment and NIR Irradiation
[11] = after 14 days of treatment, no NIR irradiation

Structure (SMILES): COc1cccc2c1C(=O)c1c(O)c3c(c(O)c1C2=O)C[C@@](O)(C(=O)CO)C[C@@H]3O[C@H]1C[C@H](N)[C@H](O)[C@H](C)O1 [DOX, Doxorubicin]
- toxicity to the CAM (coagulation, hemorrhage, vascular morphology, embryotoxicity) [1]: notable sign of toxicity such as coagulation, bleeding, and embryo toxicity
- cellular uptake (DOX fluorescence intensity) (4 T1 cells [2]): greater fluorescence intensity than BP-based NPs
- HCT [3, 10]: 46.76±4.31%
- HGB [3, 10]: 13.88 ± 1.28 g/dL
- MCH [3, 10]: 16.35 ± 1.51 pg
- MCV [3, 10]: 50.93 ± 3.10 fL
- MPV [3, 10]: 6.39 ± 0.59 fL
- PDW [3, 10]: 14.34 ± 1.32 fL
- PLT [3, 10]: 924.2±85.27 ×10^3/µL
- RBC [3, 10]: 7.8±1.31 ×10^6/µL
- RDW‐CV [3, 10]: 13.61±1.26%
- RDW‐SD [3, 10]: 35.71 ± 3.29 fL
- WBC [3, 10]: 8.77±0.81 10^3/µL
- HCT [3, 11]: 42.69±4.36%
- HGB [3, 11]: 14.57 ± 0.42 g/dL
- MCH [3, 11]: 16.27 ± 1.64 pg
- MCV [3, 11]: 52.77 ± 4.81 fL
- MPV [3, 11]: 6.37 ± 1.21 fL
- PDW [3, 11]: 14.77 ± 2.06 fL
- PLT [3, 11]: 940±75.19 ×10^3/µL
- RBC [3, 11]: 9.39±1.2 ×10^6/µL
- RDW‐CV [3, 11]: 13.77±0.38%
- RDW‐SD [3, 11]: 38.17 ± 3.09 fL
- WBC [3, 11]: 9.73±1.5 10^3/µL
- breast tumour growth suppression [4]: failed to efficiently suppress the breast tumour growth
- AUC(0-t) [5]: 2976.15 ± 1191.277 ng·h/mL
- AUC(0-∞) [5]: 3168.98 ± 1086.246 ng·h/mL
- Cmax [5]: 469.73 ± 93.78 ng/mL
- Ke [5]: 0.141 ± 0.05 h⁻¹
- T max [5]: 4.98 ± 0 min
- t1/2 [5]: 5.47 ± 2.15 h
- liver pathology ([6]; H&E, 14 days of treatment): severe hypertrophy and liver congestion
- Malignant features like nuclear pleomorphism, hyperchromatism ([6]; NIR irradiated): +++
- Mitotic count/10HPF ([6]; NIR irradiated): 23 /10HPF
- Muscle invasion ([6]; NIR irradiated): -
- Necrosed area ([6]; NIR irradiated): +++
- Tumour cells ([6]; NIR irradiated): +++
- inflammation ([6]; NIR irradiated): -
- Malignant features like nuclear pleomorphism, hyperchromatism ([6]; NIR non-irradiated): ++
- Mitotic count/10HPF ([6]; NIR non-irradiated): 4 /10HPF
- Muscle invasion ([6]; NIR non-irradiated): -
- Necrosed area ([6]; NIR non-irradiated): -
- Tumour cells ([6]; NIR non-irradiated): +
- inflammation ([6]; NIR non-irradiated): +++
- fluorescence signal of DOX at the tumour region [7]: significantly reduced signal
- IC50 value, NIR Irradiated (4 T1 cells [8]): 1.58 µg/mL (≈ 2.91 µM)
- IC50 value, Non NIR Irradiated (4 T1 cells [9]): 2.84 µg/mL (≈ 5.23 µM)
